ChEMBL document CHEMBL3576837, “Targeted natural products discovery from marine cyanobacteria using combined phylogenetic and mass spectrometric evaluation” (2015)

How the values were obtained:
Assay type in all cases: functional
HT-29 [1] = experiment: Cytotoxicity against human HT-29 cells assessed as cell viability at 0.32 nM incubated for 48 hrs by MTT assay; conditions: HT-29, 48 h, read-out: Activity
HT-29 [2] = experiment: Cytotoxicity against human HT-29 cells assessed as cell viability at 0.32 nM incubated for 48 hrs in presence of 4 nM largazole by MTT assay
HT-29 [3] = experiment: Cytotoxicity against human HT-29 cells assessed as cell viability at 4 nM incubated for 48 hrs in presence of 0.32 nM dolastatin 10 by MTT assay
HT-29 [4] = experiment: Cytotoxicity against human HT-29 cells assessed as cell viability at 4 nM incubated for 48 hrs by MTT assay; conditions: HT-29, 48 h, read-out: Activity

Row | Compound | viability at 0.00032 µM (HT-29 [1]) [%] | Activity (HT-29 [2]) [%] | Activity (HT-29 [3]) [%] | viability at 0.004 µM (HT-29 [4]) [%]
1 | CC[C@H](C)[C@@H]([C@@H](CC(=O)N1CCC[C@H]1[C@H](OC)[C@@H](C)C(=O)N[C@@H](Cc1ccccc1)c1nccs1)OC)N(C)C(=O)[C@@H](NC(=O)[C@H](C(C)C)N(C)C)C(C)C [DOLASTATIN-10] | 80 | 55 |  | 
2 | CCCCCCCC(=O)SCC/C=C/[C@@H]1CC(=O)NCc2nc(cs2)C2=N[C@@](C)(CS2)C(=O)N[C@@H](C(C)C)C(=O)O1 [LARGAZOLE] |  |  | 55 | 80
